Here are results for 16 molecules from patent US20240309016A1, “MACROCYCLIC HETEROCYCLE COMPOUNDS AND USE THEREOF” (TAKEDA PHARMACEUTICAL COMPANY LIMITED, priority 2023, published 2024).

One data set concerns the target T1, human OX2 receptor (Homo sapiens, UniProt O43614).
T1 construct: expressed in transfected cells
T1 sequence (O43614 1-444): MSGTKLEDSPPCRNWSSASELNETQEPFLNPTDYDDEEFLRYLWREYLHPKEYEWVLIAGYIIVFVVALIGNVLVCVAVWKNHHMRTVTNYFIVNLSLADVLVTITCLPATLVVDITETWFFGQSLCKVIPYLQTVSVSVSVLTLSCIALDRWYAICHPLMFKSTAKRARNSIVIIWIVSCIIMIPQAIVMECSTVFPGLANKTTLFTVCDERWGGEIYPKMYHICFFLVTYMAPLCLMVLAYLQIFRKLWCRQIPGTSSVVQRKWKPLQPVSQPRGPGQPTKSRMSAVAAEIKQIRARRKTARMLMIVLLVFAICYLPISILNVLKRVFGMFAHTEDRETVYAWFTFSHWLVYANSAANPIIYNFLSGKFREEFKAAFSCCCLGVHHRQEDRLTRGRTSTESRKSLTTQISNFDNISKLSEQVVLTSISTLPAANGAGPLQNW
In words: Measurement of orexin type 2 receptor agonist activity (Experimental Example 2; Fluo-4 AM calcium fluorescence, FDSS μCELL). Format: cell-based. As to conditions: compound at 3 μM; CHO cells expressing human OX2 receptor; DMSO = 0%, 10 nM orexin A (human) = 100%. The method in brief:
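Agonism was tested in CHO-K1 cells stably expressing human OX2 receptor (residues 1-444), loaded with Fluo-4 AM plus probenecid. Calcium fluorescence was recorded for 1 min 40 s after compound addition. Activity (%) was scaled between DMSO (0%) and 10 nM orexin A (100%) and reported at 3 μM compound.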
For `CCS(=O)(=O)N[C@@H]1[C@@H]2Cc3cccc(c3F)Oc3nc(ccc3C)CNC(=O)N2CC1(F)F` [Example 5, N-[(15aS,16R)-17,17,20-trifluoro-7-methyl-1-oxo-2,3,15a,16,17,18-hexahydro-1H,15H-4,8-(azeno)-10,14-(metheno)pyrrolo[1,2-j][1,8,10]oxadiazacyclo-heptadecin-16-yl]ethanesulfonamide], the “OX2R agonist activity (3 μM, %)” value was 102%.

Turning to `O=C1NCc2ccc(Cl)c(n2)Oc2cccc(c2F)C[C@H]2[C@@H](NS(=O)(=O)C3CC3)C(F)(F)CN12` [Example 22, N-[(15aS,16R)-7-chloro-17,17,20-trifluoro-1-oxo-2,3,15a,16,17,18-hexahydro-1H,15H-4,8-(azeno)-14,10-(metheno)pyrrolo[1,2-j][1,8,10]oxadiazacyclo-heptadecin-16-yl]cyclopropanesulfonamide], the “OX2R agonist activity (3 μM, %)” value came to 100%.

As for `CCS(=O)(=O)N[C@@H]1[C@@H]2Cc3cccc(c3F)Oc3nc(ccc3C(F)F)CNC(=O)N2CC1(F)F` [Example 29, N-[(15aS,16R)-7-(difluoromethyl)-17,17,20-trifluoro-1-oxo-2,3,15a,16,17,18-hexahydro-1H,15H-4,8-(azeno)-10,14-(metheno)pyrrolo[1,2-j][1,8,10]oxadiazacyclo-heptadecin-16-yl]ethanesulfonamide], the “OX2R agonist activity (3 μM, %)” value came out at 100%.

`CCS(=O)(=O)N[C@H]1[C@@H](F)CN2C(=O)NCc3ncc(C)c(n3)Oc3cccc(c3F)C[C@@H]12` [Example 55, N-[(15aS,16R,17S)-17,20-difluoro-7-methyl-1-oxo-2,3,15a,16,17,18-hexahydro-1H,15H-4,8-(azeno)-10,14-(metheno)pyrrolo[1,2-j][1,5,8,10]oxatriazacyclo-heptadecin-16-yl]ethanesulfonamide]: the “OX2R agonist activity (3 μM, %)” value turned out to be 107%.

Turning to `CCS(=O)(=O)N[C@H]1[C@@H](F)CN2C(=O)NCc3ccc(C(F)F)c(n3)Oc3cccc(c3F)C[C@@H]12` [Example 27, N-[(15aS,16R,17S)-7-(difluoromethyl)-17,20-difluoro-1-oxo-2,3,15a,16,17,18-hexahydro-1H,15H-8,4-(azeno)-10,14-(metheno)pyrrolo[1,2-j][1,8,10]oxadiazacyclo-heptadecin-16-yl]ethanesulfonamide], the “OX2R agonist activity (3 μM, %)” value was 102%.

Turning to `O=C1NCc2ccc(C(F)F)c(n2)Oc2cccc(c2F)C[C@H]2[C@@H](NS(=O)(=O)C3CC3)[C@@H](F)CN12` [Example 28, N-[(15aS,16R,17S)-7-(difluoromethyl)-17,20-difluoro-1-oxo-2,3,15a,16,17,18-hexahydro-1H,15H-8,4-(azeno)-10,14-(metheno)pyrrolo[1,2-j][1,8,10]oxadiazacyclo-heptadecin-16-yl]cyclopropanesulfonamide], the “OX2R agonist activity (3 μM, %)” value worked out at 94%.

`CN(C)S(=O)(=O)N[C@H]1[C@@H](F)CN2C(=O)NCc3ccc(Cl)c(n3)Oc3cccc(c3F)C[C@@H]12` [Example 34, N′-[(15aS,16R,17S)-7-chloro-17,20-difluoro-1-oxo-2,3,15a,16,17,18-hexahydro-1H,15H-4,8-(azeno)-14,10-(metheno)pyrrolo[1,2-j][1,8,10]oxadiazacyclo-heptadecin-16-yl]-N,N-dimethylsulfuric diamide]: the “OX2R agonist activity (3 μM, %)” value turned out to be 93%.

With `Cc1ccc2nc1Oc1cccc(c1F)C[C@H]1[C@@H](NS(=O)(=O)CF)C(F)(F)CN1C(=O)NC2` [Example 19, 1-fluoro-N-[(15aS,16R)-17,17,20-trifluoro-7-methyl-1-oxo-2,3,15a,16,17,18-hexahydro-1H,15H-4,8-(azeno)-10,14-(metheno)pyrrolo[1,2-j][1,8,10]oxadiazacyclo-heptadecin-16-yl]methanesulfonamide], the “OX2R agonist activity (3 μM, %)” value was found to be 109%.

Take `Cc1ccc2nc1Oc1cc(ccc1F)C[C@H]1[C@@H](NS(C)(=O)=O)CCN1C(=O)NC2` (relative stereo) [Example 9, N-[rel-(15aR,16R)-11-fluoro-7-methyl-1-oxo-2,3,15a,16,17,18-hexahydro-1H,15H-4,8-(azeno)-10,14-(metheno)pyrrolo[1,2-j][1,8,10]oxadiazacyclo-heptadecin-16-yl]methanesulfonamide (optical isomer)]: the “OX2R agonist activity (3 μM, %)” value is 93%.

Regarding `CS(=O)(=O)N[C@H]1CCN2C(=O)NCc3ccc(C(F)F)c(n3)Oc3cccc(c3)C[C@@H]12` [Example 8, N-[(15aS,16S)-7-(difluoromethyl)-1-oxo-2,3,15a,16,17,18-hexahydro-1H,15H-4,8-(azeno)-14,10-(metheno)pyrrolo[1,2-j][1,8,10]oxadiazacyclo-heptadecin-16-yl]methanesulfonamide], the “OX2R agonist activity (3 μM, %)” value stood at 100%.

In the case of `CCS(=O)(=O)N[C@H]1[C@@H](F)CN2C(=O)COc3ccc(Cl)c(n3)Cc3cccc(c3F)C[C@@H]12` [Example 72, N-[(15aS,16R,17S)-7-chloro-17,20-difluoro-1-oxo-1,2,15a,16,17,18-hexahydro-9H,15H-4,8-(azeno)-14,10-(metheno)pyrrolo[1,2-d][1,4]oxazacycloheptadecin-16-yl]ethanesulfonamide], the “OX2R agonist activity (3 μM, %)” value is 104%.

As for `CS(=O)(=O)N[C@H]1[C@@H](F)CN2C(=O)COc3ccc(Cl)c(n3)Cc3cccc(c3F)C[C@@H]12` [Example 67, N-[(15aS,16R,17S)-7-chloro-17,20-difluoro-1-oxo-1,2,15a,16,17,18-hexahydro-9H,15H-4,8-(azeno)-14,10-(metheno)pyrrolo[1,2-d][1,4]oxazacycloheptadecin-16-yl]methanesulfonamide], the “OX2R agonist activity (3 μM, %)” value stood at 103%.

With `CCS(=O)(=O)N[C@H]1[C@@H](F)CN2C(=O)N(C)Cc3ccc(Cl)c(n3)Oc3cccc(c3F)C[C@@H]12` [Example 73, N-[(15aS,16R,17S)-7-chloro-17,20-difluoro-2-methyl-1-oxo-2,3,15a,16,17,18-hexahydro-1H,15H-4,8-(azeno)-10,14-(metheno)pyrrolo[1,2-j][1,8,10]oxadiazacyclo-heptadecin-16-yl]ethanesulfonamide], the “OX2R agonist activity (3 μM, %)” value amounted to 101%.

Take `CCS(=O)(=O)N[C@H]1[C@@H](F)CN2C(=O)NCc3ccc(Cl)c(n3)Oc3cccc(c3F)C[C@@H]12` [Example 24, N-[(15aS,16R,17S)-7-chloro-17,20-difluoro-1-oxo-2,3,15a,16,17,18-hexahydro-1H,15H-4,8-(azeno)-14,10-(metheno)pyrrolo[1,2-j][1,8,10]oxadiazacyclo-heptadecin-16-yl]ethanesulfonamide]: the “OX2R agonist activity (3 μM, %)” value came to 104%.

On to `CS(=O)(=O)N[C@H]1CCN2C(=O)NCc3ccc(Cl)c(n3)Oc3cccc(c3)C[C@@H]12` [Example 16, N-[(15aS,16S)-7-chloro-1-oxo-2,3,15a,16,17,18-hexahydro-1H,15H-4,8-(azeno)-10,14-(metheno)pyrrolo[1,2-j][1,8,10]oxadiazacyclo-heptadecin-16-yl]methanesulfonamide], for which the “OX2R agonist activity (3 μM, %)” value is 99%.

Test system in the next data set: not given
Assay: not given
The conditions noted are these: from CCS(=O)(=O)N[C@@H]1[C@H](Cc2cccc(Oc3nc(CN)ccc3C)c2F)NCC1(F)F; other bond; di(N-succinimidyl) carbonate/4-methylmorpholine/DIPEA; THF; 1.81 mM; 25.0 °C; 12.0 h.
For the molecule `CCS(=O)(=O)N[C@@H]1[C@@H]2Cc3cccc(c3F)Oc3nc(ccc3C)CNC(=O)N2CC1(F)F` [Example 5, N-[(15aS,16R)-17,17,20-trifluoro-7-methyl-1-oxo-2,3,15a,16,17,18-hexahydro-1H,15H-4,8-(azeno)-10,14-(metheno)pyrrolo[1,2-j][1,8,10]oxadiazacyclo-heptadecin-16-yl]ethanesulfonamide], the ring closure, yield of all isomers was 21%.

The same data set, now with this note: from Cc1ccc(CN)nc1Oc1cccc(C[C@@H]2NCC(F)(F)[C@@H]2NC(=O)OCc2ccccc2)c1F; other bond; di(N-succinimidyl) carbonate; THF; 2.0 mM; 70.0 °C; 5.2 h.
Regarding `Cc1ccc2nc1Oc1cccc(c1F)C[C@H]1[C@@H](NC(=O)OCc3ccccc3)C(F)(F)CN1C(=O)NC2`, the ring closure, yield of all isomers is 78.8%.

The same data set, now with this note: from NCc1ccc(Cl)c(Oc2cccc(C[C@@H]3NCC(F)(F)[C@@H]3NS(=O)(=O)C3CC3)c2F)n1; other bond; di(N-succinimidyl) carbonate; THF; 1.85 mM; 25.0 °C; 0.08 h.
Take `O=C1NCc2ccc(Cl)c(n2)Oc2cccc(c2F)C[C@H]2[C@@H](NS(=O)(=O)C3CC3)C(F)(F)CN12` [Example 22, N-[(15aS,16R)-7-chloro-17,17,20-trifluoro-1-oxo-2,3,15a,16,17,18-hexahydro-1H,15H-4,8-(azeno)-14,10-(metheno)pyrrolo[1,2-j][1,8,10]oxadiazacyclo-heptadecin-16-yl]cyclopropanesulfonamide]: the ring closure, yield of all isomers came to 49.4%.
